Entries after “also recorded” stand apart in the source; their conditions may differ.
Experiments:
[1] = tested on: superficial dorsal horn neurons; assay: In vivo single-unit recording, id chloroquine-evoked firing, spinal superfusion of antagonists; set-up: species or system mice
Method: The single-unit recording from the lumbar spinal cord was conducted as previously detailed [Akiyama T et al., Journal of neurophysiology 102(4):2176-2183 (2009); Akiyama T et al., The Journal of neuroscience: the official journal of the Society for Neuroscience 29(20):6691-6699 (2009)]. Anesthesia was induced by sodium pentobarbital (60 mg/kg ip) and maintained by supplemental injections (10-20 mg/kg/hr). A gravity-driven perfusion system allowed artificial cerebrospinal fluid (Krebs: 117 mM NaCl, 3.6 mM KCl, 2.5 mM CaCl2, 1.2 mM MgCl2, 1.2 mM NaH2PO4, 25 mM NaHCO3 and 11 mM glucose which was equilibrated with 95% 02 and 5% CO2 at 37° C.) to be superfused continually over the exposed lumbosacral spinal cord [Akiyama T et al., PloS one 6(7):e22665 (2011)]. A tungsten microelectrode recorded single-unit activity in the lumbar spinal cord. A chemical search strategy [Akiyama T et al., Journal of neurophysiology 102(4):2176-2183 2009; Akiyama T et al., The Journal of neuroscience: the official journal of the Society for Neuroscience 29(20):6691-6699 (2009)] was used to identify and isolate chloroquine-responsive units. Our search strategy was intended to maximize the chance of isolating a chloroquine-responsive neuron; it was assumed that such neurons either gave rise to ascending projections, or served as interneurons in segmental scratch-reflex circuitry, and no attempt was presently made to distinguish between these possibilities.
Briefly, a small (˜0.25 μl) intradermal (id) microinjection of chloroquine (100 μg/μl) was made in the ventral hindpaw and a spontaneously active unit in the superficial lumbar dorsal horn (depth<300 um) was isolated. After the spontaneous activity had waned, chloroquine (1 μl, 100 μg/μl) was injected again at the same site through the same needle. […] Responses were usually recorded for at least 30 minutes, although in many cases unit firing declined over a shorter period.
Action potentials were recorded to a computer and counted using Chart software (AD Instruments, Colorado Springs Colo.) and Spike2 software (CED Instruments). Ongoing responses elicited by chloroquine, histamine, or AITC were averaged at 20-second intervals before, during and after the antagonist application, and compared by one way repeated-measures analysis of variance (ANOVA) followed by post-hoc Bonferroni test, with p<0.05 set as significant. The mean firing rate was calculated over a 20-second period 40 seconds after the antagonist application, and compared by one way ANOVA followed by post-hoc Bonferroni test, with p<0.05 set as significant. The criterion for decrease in ongoing firing was >70% decrease below the ongoing activity elicited by pruritogen over a 20-second period 40 seconds after the antagonist application. Mean peak responses elicited by noxious pinch were compared by one way repeated-measures ANOVA followed by post-hoc Bonferroni test, with p<0.05 set as significant. At the end of each experiment, an electrolytic lesion was made at the spinal cord recording site. The spinal cord was postfixed in 10% buffered formalin, cut in 50 μm frozen sections, and examined under the light microscope to identify lesions.

[2] = tested on: superficial dorsal horn neurons; assay: In vivo single-unit recording, topical AITC-evoked firing, spinal superfusion of antagonists; set-up: species or system mice
Method: Akiyama T et al., The Journal of neuroscience: the official journal of the Society for Neuroscience 29(20):6691-6699 (2009)]. Anesthesia was induced by sodium pentobarbital (60 mg/kg ip) and maintained by supplemental injections (10-20 mg/kg/hr). […] A tungsten microelectrode recorded single-unit activity in the lumbar spinal cord. A chemical search strategy [Akiyama T et al., Journal of neurophysiology 102(4):2176-2183 2009; […] Following mechanical stimulation, histamine (50 μg) was injected id within the same receptive field at a different location via a separate injection cannula. Following the id histamine injection, we tested the effects of antagonists for the receptors of NK1, GRP, or AMPA/kainate in the same manner as described above for chloroquine. […] Following the AITC application, we tested the effects of the NK-1 receptor antagonist, the AMPA/kainate receptor antagonist, or a combination of both antagonists in the same manner as described above for chloroquine. Action potentials were recorded to a computer and counted using Chart software (AD Instruments, Colorado Springs Colo.) and Spike2 software (CED Instruments). […] Mean peak responses elicited by noxious pinch were compared by one way repeated-measures ANOVA followed by post-hoc Bonferroni test, with p<0.05 set as significant. At the end of each experiment, an electrolytic lesion was made at the spinal cord recording site.

[3] = tested on: histamine-evoked scratching; assay: Histamine-evoked scratching behavior after intrathecal antagonists; format: in vivo, mice; conditions: intrathecal CNQX 20 nmol, 5 min before id histamine 271 nmol
Text: The fur on the rostral back was shaved and mice were habituated to the Plexiglas recording arena one week prior to testing. For intrathecal injections, either vehicle (saline), the GRP receptor antagonist RC-3095 (0.3 nmol; Sigma-Aldrich, St. Louis Mo.), the NK-1 antagonist L-733060 (22.7 nmol; Tocris Bioscience, Minneapolis, Minn.), the AMPA/kainate antagonist CNQX (20 nmol; Tocris Bioscience), a combination of CNQX (20 nmol) and L-733060 (22.7 nmol), or a combination of RC-3095 (0.3 nmol), CNQX (20 nmol) and L-733060 (22.7 nmol), was administered by lumbar puncture, followed 5 minutes later by id injection (10 μl) of either chloroquine (193 nmol; Sigma-Aldrich) or histamine (271 nmol; Sigma-Aldrich). Microinjections were made id in the nape of the neck using a 30 G needle attached to a Hamilton microsyringe by PE-50 tubing. Immediately after the id injection the mouse was placed into the arena and videotaped from above for 30 min. Generally 3-4 mice were injected and videotaped simultaneously. Immediately after commencing videotaping all investigators left the room.
Videotapes were reviewed by investigators blinded to the treatment, and the number of scratch bouts was counted at 5-minute intervals. […] Hind paw movements directed away from the injection site (e.g., ear-scratching) and grooming movements were not counted. […]

N#Cc1cc2[nH]c(=O)c(=O)[nH]c2cc1[N+](=O)[O-] [CNQX]
chloroquine-evoked firing compared to vehicle superfusion ([1]; 40-60 s of superfusion, normalized firing, vs vehicle): significantly attenuated chloroquine-evoked firing
chloroquine-evoked firing in NS cells ([1]; NS units, vs vehicle): significantly reduced
chloroquine-evoked firing in WDR cells ([1]; WDR units, vs vehicle): significantly reduced
chloroquine-evoked firing, effect of spinal superfusion ([1]; relative to chloroquine-evoked response prior to spinal superfusion): significantly attenuated during and after spinal superfusion; also recorded: reduced
AITC-evoked firing, effect of spinal superfusion ([2]; topical AITC 75%): significantly reduced
Percentages of dorsal horn units that exhibited a decrease of 70% or more in firing rate following spinal superfusion of antagonists ([2]; topical AITC-evoked firing, superfusion 1 min, L-733060 200 μM, CNQX 100 μM): 62% (8/15)
histamine-evoked scratching (scratch bouts/30 minutes) [3]: significantly decreased; also recorded: significantly reduced; also recorded: prevented histamine-evoked scratching behavior
